Reference: the NIST ThermoML archive (doi:10.1016/j.jct.2015.11.009)
Numbers after ± are expanded uncertainties.

How the values were obtained:
[1] = xn = mol fraction of the nth substance listed; settings: 100 kPa, Liquid, x1 = 1; for speed of sound: Frequency=3 MHz, Sing-around technique in a fixed-path interferometer; for mass density: Vibrating tube method
[2] = refractive index (Na D-line) (dimensionless); xn = mol fraction of the nth substance listed; settings: 100 kPa, Liquid, Standard Abbe refractometry, x1 = 1
[3] = 100 kPa, Liquid; for speed of sound: Frequency=3 MHz, Sing-around technique in a fixed-path interferometer; for mass density: Vibrating tube method
[4] = refractive index (Na D-line) (dimensionless); settings: 100 kPa, Liquid, Standard Abbe refractometry

CCCCn1cc[n+](C)c1.F[B-](F)(F)F [1-butyl-3-methylimidazolium tetrafluoroborate] + O=C1CCCN1
Settings	mass density, [1] [kg/m3]	refractive index, [2]	speed of sound, [1] [m/s]
298.15 K	1198.78 ± 1.1	1.42058 ± 0.00087	1565.1 ± 1.6
303.15 K	1195.18 ± 1.1	1.41913 ± 0.00087	1553.2 ± 1.6
308.15 K	1191.6 ± 1.1	1.41764 ± 0.00087	1541.3 ± 1.6
313.15 K	1188.04 ± 1.1	1.41621 ± 0.00087	1529.7 ± 1.6
318.15 K	1184.5 ± 1.1	1.41472 ± 0.00087	1518.2 ± 1.6
323.15 K	1180.98 ± 1.1	1.4133 ± 0.00087	1506.8 ± 1.6

O=C1CCCN1 [2-pyrrolidinone]
Settings	mass density, [3] [kg/m3]	refractive index, [4]	speed of sound, [3] [m/s]
298.15 K	1107.16 ± 1	1.48591 ± 0.00086	1634.4 ± 1.4
303.15 K	1103.07 ± 1	1.48403 ± 0.00086	1618 ± 1.4
308.15 K	1098.99 ± 1	1.48218 ± 0.00086	1601.6 ± 1.4
313.15 K	1094.9 ± 1	1.48033 ± 0.00086	1585.4 ± 1.4
318.15 K	1090.82 ± 1	1.47841 ± 0.00086	1570.4 ± 1.4
323.15 K	1086.75 ± 1	1.47649 ± 0.00086	1553.5 ± 1.4
